Source: patent US20190002935A1, “BACTERIAL CELLS WITH IMPROVED TOLERANCE TO POLYAMINES” (DANMARKS TEKNISKE UNIVERSITET, priority 2016, published 2019)

Columns and labels:
E. coli K-12 MG1655 = experiment: Growth Profiler growth of K-12 MG1655 in a range of concentrations of other polyamines and amine-containing compounds; conditions: for screening concentration for which wild-type cells could achieve a growth rate of 0.2-0.3 h^−1: K-12 MG1655, uninhibited growth 0.7-0.9 h^−1 in M9 glucose minimal medium; for tlag (lag time) / μ (growth rate): Growth Profiler
Text: For data obtained with the Growth Profiler, improved image analysis was additionally implemented to obtain the updated growth parameters. In the Tables below, for values labeled in columns with “(1)”, integrated pixel values (which were later converted to OD600 using a calibration curve) were obtained directly from image analysis capabilities in the Growth Profiler software. In the Tables below, for values labeled in columns with “(2)”, a new algorithm was implemented that automatically detected the pixel integration region in each well in each image by locating the darkest pixels in each well. These values were converted to OD600 with a calibration run in the same manner. The new algorithm provided for an improved accuracy in determining the growth rate, since it eliminated a slowly oscillating frequency that was sometimes observed in the original data, potentially related to the practical setup when scanning the plates.
Additionally, each evolved isolate was tested for cross-tolerance toward other polyamines and amine-containing compounds of biotechnological interest. First, K-12 MG1655 was tested in the Growth Profiler screening format for growth in the presence of a range of concentrations of each compound: 1,3-diaminopropane, 1,5-diaminopentane (cadaverine), spermidine, citrulline, ethylenediamine, carnitine, and ornithine. Variable concentrations of these compounds elicited growth inhibition in E. coli K-12 MG1655 (Table 36). […] The compounds citrulline and ornithine are polyamine-containing amino acids. […] Among the only exceptions were PUTR7-1 in citrulline and PUTR5-1 and PUTR6-2 in ornithine.

[1] = system: Escherichia coli K-12 MG1655; experiment: Screening for tolerance in wild-type cells (Biolector, varying concentrations of putrescine or HMDA); type: cell-based; conditions: for mean (1) tlag (lag time) / mean (1) μ (growth rate) / mean (2) tlag (lag time) / mean (2) μ (growth rate): K-12 MG1655; for mean (1) tlag (lag time) / mean (1) μ (growth rate): software version (1); for mean (2) tlag (lag time) / mean (2) μ (growth rate): software version (2); for maximum measured concentration at which K-12 MG1655 can grow: M9+1% glucose
Protocol: Escherichia coli K-12 MG1655 was grown overnight in M9 minimal medium+1% glucose and subcultured the following morning to an initial OD600 of 0.05 in M9+1% glucose. Cells were grown to mid-exponential phase (OD600 0.7-1.0) and were back-diluted with fresh medium to an OD600 of 0.7. […] The culture volume in each well was 1.4 mL.
For data obtained with the Biolector microbioreactor system, self-baselined growth series were imported directly into a custom software platform that automatically detects growth phases and exports growth rates and lag times.

[2] = K-12 MG1655, 10 g/L of the compound
[3] = K-12 MG1655, 20 g/L of the compound
[4] = K-12 MG1655, 25 g/L of the compound
[5] = K-12 MG1655, 30 g/L of the compound
[6] = K-12 MG1655, 40 g/L of the compound
[7] = K-12 MG1655, 50 g/L of the compound
[8] = K-12 MG1655, 5 g/L of the compound
[9] = K-12 MG1655, 45 g/L of the compound
[10] = K-12 MG1655, 60 g/L of the compound
[11] = K-12 MG1655, 75 g/L of the compound

SMILES: NCCCN [1,3-diaminopropane, propane-1,3-diamine]
- screening concentration for which wild-type cells could achieve a growth rate of 0.2-0.3 h^−1 (E. coli K-12 MG1655): 35 g/L

SMILES: N=C(N)NCCCCN [Agmatine, 1-amino-4-guanidinobutane]
- tlag (lag time) (E. coli K-12 MG1655; [2]): 5.3 h
- μ (growth rate) (E. coli K-12 MG1655; [2]): 0.700 h⁻¹
- tlag (lag time) (E. coli K-12 MG1655; [3]): 5.6 h
- μ (growth rate) (E. coli K-12 MG1655; [3]): 0.630 h⁻¹
- tlag (lag time) (E. coli K-12 MG1655; [4]): 6.1 h
- μ (growth rate) (E. coli K-12 MG1655; [4]): 0.648 h⁻¹
- tlag (lag time) (E. coli K-12 MG1655; [5]): 6.3 h
- μ (growth rate) (E. coli K-12 MG1655; [5]): 0.610 h⁻¹
- tlag (lag time) (E. coli K-12 MG1655; [6]): 7.0 h
- μ (growth rate) (E. coli K-12 MG1655; [6]): 0.632 h⁻¹
- tlag (lag time) (E. coli K-12 MG1655; [7]): 7.9 h
- μ (growth rate) (E. coli K-12 MG1655; [7]): 0.523 h⁻¹
- concentration up to which the compound was non-toxic (E. coli K-12 MG1655; K-12 MG1655, Growth Profiler): up to 50 g/L

SMILES: NCCCCCCN [HMDA, hexane-1,6-diamine]
- mean (1) tlag (lag time) ([1]; 10 g/L): 1.3 h
- mean (1) μ (growth rate) ([1]; 10 g/L): 0.806 h⁻¹
- mean (2) tlag (lag time) ([1]; 10 g/L): 0.8 h
- mean (2) μ (growth rate) ([1]; 10 g/L): 0.605 h⁻¹
- mean (1) tlag (lag time) ([1]; 20 g/L): 1.4 h
- mean (1) μ (growth rate) ([1]; 20 g/L): 0.601 h⁻¹
- mean (2) tlag (lag time) ([1]; 20 g/L): 0.3 h
- mean (2) μ (growth rate) ([1]; 20 g/L): 0.394 h⁻¹
- mean (1) tlag (lag time) ([1]; 30 g/L): 1.7 h
- mean (1) μ (growth rate) ([1]; 30 g/L): 0.475 h⁻¹
- mean (2) tlag (lag time) ([1]; 30 g/L): 0.0 h
- mean (2) μ (growth rate) ([1]; 30 g/L): 0.241 h⁻¹
- mean (1) tlag (lag time) ([1]; 40 g/L): 2.6 h
- mean (1) μ (growth rate) ([1]; 40 g/L): 0.216 h⁻¹
- mean (2) tlag (lag time) ([1]; 40 g/L): 2.3 h
- mean (2) μ (growth rate) ([1]; 40 g/L): 0.136 h⁻¹
- mean (1) μ (growth rate) ([1]; 50 g/L): 0.000 h⁻¹
- mean (2) μ (growth rate) ([1]; 50 g/L): 0.000 h⁻¹
- mean (1) μ (growth rate) ([1]; 75 g/L): 0.000 h⁻¹
- mean (2) μ (growth rate) ([1]; 75 g/L): 0.000 h⁻¹
- mean (1) μ (growth rate) ([1]; 100 g/L): 0.000 h⁻¹
- mean (2) μ (growth rate) ([1]; 100 g/L): 0.000 h⁻¹
- concentration at which zero/no growth was detected ([1]; K-12 MG1655, M9+1% glucose, Biolector): 50 g/L
- maximum measured concentration at which K-12 MG1655 can grow ([1]; Biolector): 40 g/L

SMILES: NCCCCCN [cadaverine, pentane-1,5-diamine]
- screening concentration for which wild-type cells could achieve a growth rate of 0.2-0.3 h^−1 (E. coli K-12 MG1655): 35 g/L

SMILES: C[N+](C)(C)CC(O)CC(=O)[O-] (centres unmarked) [carnitine]
- tlag (lag time) (E. coli K-12 MG1655; [8]): 6.6 h
- μ (growth rate) (E. coli K-12 MG1655; [8]): 0.786 h⁻¹
- tlag (lag time) (E. coli K-12 MG1655; [2]): 7.5 h
- μ (growth rate) (E. coli K-12 MG1655; [2]): 0.545 h⁻¹
- μ (growth rate) (E. coli K-12 MG1655; [3]): 0.000 h⁻¹

SMILES: NC(=O)NCCC[C@H](N)C(=O)O [citrulline]
- tlag (lag time) (E. coli K-12 MG1655; [4]): 6.7 h
- μ (growth rate) (E. coli K-12 MG1655; [4]): 0.759 h⁻¹
- tlag (lag time) (E. coli K-12 MG1655; [5]): 7.0 h
- μ (growth rate) (E. coli K-12 MG1655; [5]): 0.702 h⁻¹
- tlag (lag time) (E. coli K-12 MG1655; [6]): 7.5 h
- μ (growth rate) (E. coli K-12 MG1655; [6]): 0.677 h⁻¹
- tlag (lag time) (E. coli K-12 MG1655; [9]): 8.6 h
- μ (growth rate) (E. coli K-12 MG1655; [9]): 0.508 h⁻¹
- tlag (lag time) (E. coli K-12 MG1655; [7]): 9.2 h
- μ (growth rate) (E. coli K-12 MG1655; [7]): 0.538 h⁻¹
- tlag (lag time) (E. coli K-12 MG1655; [10]): 10.4 h
- μ (growth rate) (E. coli K-12 MG1655; [10]): 0.437 h⁻¹
- tlag (lag time) (E. coli K-12 MG1655; [11]): 12.4 h
- μ (growth rate) (E. coli K-12 MG1655; [11]): 0.355 h⁻¹
- screening concentration for which wild-type cells could achieve a growth rate of 0.2-0.3 h^−1 (E. coli K-12 MG1655): 80 g/L

SMILES: NCCN [ethylenediamine, 1,2-diaminoethane]
- tlag (lag time) (E. coli K-12 MG1655; [8]): 7.0 h
- μ (growth rate) (E. coli K-12 MG1655; [8]): 0.689 h⁻¹
- tlag (lag time) (E. coli K-12 MG1655; [2]): 8.5 h
- μ (growth rate) (E. coli K-12 MG1655; [2]): 0.614 h⁻¹
- tlag (lag time) (E. coli K-12 MG1655; [3]): 32.9 h
- μ (growth rate) (E. coli K-12 MG1655; [3]): 0.152 h⁻¹
- μ (growth rate) (E. coli K-12 MG1655; [4]): 0.000 h⁻¹
- screening concentration for which wild-type cells could achieve a growth rate of 0.2-0.3 h^−1 (E. coli K-12 MG1655): 18 g/L

SMILES: NCCC[C@H](N)C(=O)O [ornithine]
- tlag (lag time) (E. coli K-12 MG1655; [8]): 8.2 h
- μ (growth rate) (E. coli K-12 MG1655; [8]): 0.439 h⁻¹
- tlag (lag time) (E. coli K-12 MG1655; [2]): 17.1 h
- μ (growth rate) (E. coli K-12 MG1655; [2]): 0.260 h⁻¹
- tlag (lag time) (E. coli K-12 MG1655; [3]): 44.2 h
- μ (growth rate) (E. coli K-12 MG1655; [3]): 0.214 h⁻¹
- tlag (lag time) (E. coli K-12 MG1655; [4]): 53.2 h
- μ (growth rate) (E. coli K-12 MG1655; [4]): 0.150 h⁻¹
- tlag (lag time) (E. coli K-12 MG1655; [5]): 82.6 h
- μ (growth rate) (E. coli K-12 MG1655; [5]): 0.076 h⁻¹
- μ (growth rate) (E. coli K-12 MG1655; [6]): 0.000 h⁻¹
- screening concentration for which wild-type cells could achieve a growth rate of 0.2-0.3 h^−1 (E. coli K-12 MG1655): 10 g/L

SMILES: NCCCCN [putrescine, butane-1,4-diamine]
- mean (1) tlag (lag time) ([1]; 10 g/L): 1.4 h
- mean (1) μ (growth rate) ([1]; 10 g/L): 0.698 h⁻¹
- mean (2) tlag (lag time) ([1]; 10 g/L): 1.0 h
- mean (2) μ (growth rate) ([1]; 10 g/L): 0.538 h⁻¹
- mean (1) tlag (lag time) ([1]; 20 g/L): 2.2 h
- mean (1) μ (growth rate) ([1]; 20 g/L): 0.577 h⁻¹
- mean (2) tlag (lag time) ([1]; 20 g/L): 1.5 h
- mean (2) μ (growth rate) ([1]; 20 g/L): 0.392 h⁻¹
- mean (1) tlag (lag time) ([1]; 30 g/L): 3.4 h
- mean (1) μ (growth rate) ([1]; 30 g/L): 0.350 h⁻¹
- mean (2) tlag (lag time) ([1]; 30 g/L): 6.2 h
- mean (2) μ (growth rate) ([1]; 30 g/L): 0.317 h⁻¹
- mean (1) tlag (lag time) ([1]; 40 g/L): 12.3 h
- mean (1) μ (growth rate) ([1]; 40 g/L): 0.108 h⁻¹
- mean (2) tlag (lag time) ([1]; 40 g/L): 25.8 h
- mean (2) μ (growth rate) ([1]; 40 g/L): 0.148 h⁻¹
- mean (1) tlag (lag time) ([1]; 50 g/L): 19.8 h
- mean (1) μ (growth rate) ([1]; 50 g/L): 0.023 h⁻¹
- mean (2) μ (growth rate) ([1]; 50 g/L): 0.000 h⁻¹
- mean (1) μ (growth rate) ([1]; 75 g/L): 0.000 h⁻¹
- mean (2) μ (growth rate) ([1]; 75 g/L): 0.000 h⁻¹
- mean (1) μ (growth rate) ([1]; 100 g/L): 0.000 h⁻¹
- mean (2) μ (growth rate) ([1]; 100 g/L): 0.000 h⁻¹
- maximum measured concentration at which K-12 MG1655 can grow ([1]; Biolector): 40 g/L

SMILES: NCCCCNCCCN [spermidine, N-(3-aminopropyl)-1,4-diaminobutane]
- screening concentration for which wild-type cells could achieve a growth rate of 0.2-0.3 h^−1 (E. coli K-12 MG1655): 40 g/L
